In ChEMBL document CHEMBL1143178, “Synthesis and analysis of stabilizing ligands for FKBP-derived destabilizing domains” (Bioorg Med Chem Lett, 2008):

Assays:
[1] = Binding affinity to human FKBP F36V mutant
[2] = Binding affinity to human FKBP F36V/L106P mutant-YFP fusion protein expressed in NIH3T3 cells after 24 hrs; type: cell-based

## CC[C@H](C(=O)N1CCCC[C@H]1C(=O)O[C@H](CCc1ccc(OC)c(OC)c1)c1cccc(OCCN2CCOCC2)c1)c1cc(OC)c(OC)c(OC)c1
[1]
  Kd: 0.0024 µM
[2]
  EC50: 0.1 µM

## CCC(CC)NC(=O)N1CCCC[C@H]1C(=O)O[C@H](CCc1ccc(OC)c(OC)c1)c1cccc(OCCN2CCOCC2)c1
[1]
  Kd: 0.029 µM
[2]
  EC50: 1.2 µM
